The record followed here is US8815796B2, “Polyheterocyclic compounds highly potent as HCV inhibitors” (AB Pharma Ltd., priority 2010, dated 2014).

In this assay the target is T1, HCV NS3-4A protease (Hepatitis C virus genotype 1a, UniProt P27958).
T1 construct: HCV NS3-4A protease
As to the kind of experiment: HCV NS3-4A protease assay in vitro (FRET-S substrate). The class given is biochemical. The method, then: HCV NS3-4A Protease Assay In Vitro.
The assay was conducted in Buffer A containing 30 mM NaCl, 5 mM CaCl2, 10 mM DTT, 50 mM Tris (pH7.8), using the Ac-Asp-Glu-Asp(EDANS)-Glu-Glu-Abu-ψ-[COO]-Ala-Ser-Lys (DABCYL)-NH2 (FRET-S) fluorescent peptide (AnaSpec, USA) as substrate. Briefly, 140 μL buffer A, 20 μL compounds dissolved in buffer A with different concentration and 20 μL HCV NS3-4A protease diluted in buffer A were added into 96-well plate respectively and mixed well. The reaction was initiate with adding 20 μL of FRET-S. Reactions were continuously monitored at 37° C. using a BMG Polarstar Galaxy (MTX Lab Systems, Inc. USA), with excitation and emission filters of 355 nm and 520 nm, respectively. The 50% inhibitory concentration (IC50) was calculated with Reed & Muench methods.

The mark [1] stands for this setting: HCV NS3-4A protease inhibition, 37° C., class symbols, read-out: NS3-NS4A IC50.

Like-named read-outs stand apart in the source and are kept apart here.

T1 sequence (P27958 1027-1657): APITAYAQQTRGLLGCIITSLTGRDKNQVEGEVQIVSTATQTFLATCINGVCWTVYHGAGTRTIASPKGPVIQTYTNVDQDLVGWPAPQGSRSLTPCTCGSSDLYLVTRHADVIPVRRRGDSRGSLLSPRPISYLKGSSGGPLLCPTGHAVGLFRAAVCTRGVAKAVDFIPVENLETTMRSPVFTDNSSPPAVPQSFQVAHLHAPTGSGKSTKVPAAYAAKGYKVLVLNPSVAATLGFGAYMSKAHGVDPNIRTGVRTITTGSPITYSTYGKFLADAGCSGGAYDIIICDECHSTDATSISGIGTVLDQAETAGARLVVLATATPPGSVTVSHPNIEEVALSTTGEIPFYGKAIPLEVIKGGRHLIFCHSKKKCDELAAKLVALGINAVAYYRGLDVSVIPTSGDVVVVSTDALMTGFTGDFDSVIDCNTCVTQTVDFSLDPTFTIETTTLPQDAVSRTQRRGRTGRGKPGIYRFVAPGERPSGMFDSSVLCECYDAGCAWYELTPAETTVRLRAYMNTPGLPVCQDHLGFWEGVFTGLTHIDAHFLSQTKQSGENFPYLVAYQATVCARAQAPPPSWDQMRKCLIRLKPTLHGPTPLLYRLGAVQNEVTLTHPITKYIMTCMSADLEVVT
T1 sequence (P27958 1658-1711): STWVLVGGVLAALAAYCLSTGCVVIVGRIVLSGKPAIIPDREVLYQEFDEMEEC

In the case of `CC[C@H]1C[C@@]1(NC(=O)C1C[C@@H](OC(=O)N2Cc3cc4c(cc3C2)OCO4)CN1C(=O)[C@@H](NC(=O)[C@@H](NS(=O)(=O)c1ccccc1)C1CCCCC1)C(C)(C)C)C(=O)NS(=O)(=O)C1CC1` (some centres unmarked) [Compound 30r], the half-maximal inhibitory concentration (IC50) under setting [1] is less than 30 nM.

With `O=C1N[C@]2(C(=O)NS(=O)(=O)C3CC3)C[C@H]2/C=C\CCCCC[C@H](N2CCCS2(=O)=O)C(=O)N2C[C@H](OC(=O)N3Cc4cccc(F)c4C3)C[C@@H]12` [Compound 12m], the IC50 under setting [1] was 30 to 200 nM.

For the compound `CC(C)(C)OC(=O)N[C@H]1CCCCC/C=C\[C@@H]2C[C@@]2(C(=O)NS(=O)(=O)C2CC2)NC(=O)[C@@H]2C[C@@H](OC(=O)N3Cc4ccc5c(c4C3)OCCO5)CN2C1=O` [Compound 12b], under setting [1], the concentration for half-maximal inhibition (IC50) was less than 30 nM.

`CC(C)(C)OC(=O)N[C@H]1CCCCC/C=C\[C@@H]2C[C@@]2(C(=O)O)NC(=O)[C@@H]2C[C@@H](OC(=O)N3Cc4ccc5c(c4C3)OCCO5)CN2C1=O` [Compound 11b]: the IC50 under setting [1] was more than 200 nM.

Take `O=C(N[C@H]1CCCCC/C=C\[C@@H]2C[C@@]2(C(=O)NS(=O)(=O)C2CC2)NC(=O)[C@@H]2C[C@@H](OC(=O)N3Cc4cc5c(cc4C3)OCO5)CN2C1=O)OC1CCCC1` [Compound 12r]: under setting [1], the concentration for half-maximal inhibition (IC50) is less than 30 nM.

As to `CN1CCCCC/C=C\[C@@H]2C[C@@]2(C(=O)NS(=O)(=O)C2CC2)NC(=O)[C@@H]2CC(OC(=O)N3Cc4cc5c(cc4C3)OCCO5)CN2C1=O` (some centres unmarked) [Compound 27b], under setting [1], the IC50 was in the range of 30 to 200 nM.

For the compound `O=C1N[C@]2(C(=O)NS(=O)(=O)C3CC3)C[C@H]2/C=C\CCCCC[C@H](Nc2cccc(F)c2)C(=O)N2C[C@H](OC(=O)N3Cc4cc5c(cc4C3)OCO5)C[C@@H]12` [Compound 15b], under setting [1], the half-inhibitory concentration (IC50) was less than 30 nM.

The compound `CCC[C@H](NC(=O)C1C[C@@H](OC(=O)N2Cc3cc4c(cc3C2)OCO4)CN1C(=O)[C@@H](NC(=O)[C@@H](NC(=O)c1cnccn1)C1CCCCC1)C(C)(C)C)C(=O)C(=O)NC1CC1` (some centres unmarked) [Compound 33a] yielded an IC50 of 30 to 200 nM.

In the case of `CC[C@H]1C[C@@]1(NC(=O)C1C[C@@H](OC(=O)N2Cc3cc4c(cc3C2)OCO4)CN1C(=O)[C@@H](NC(=O)[C@@H](NC(=O)OC1CCCC1)C1CCCCC1)C(C)(C)C)C(=O)NS(=O)(=O)C1CC1` (some centres unmarked) [Compound 30t], the IC50 was less than 30 nM.

As for `CC(C)(C)OC(=O)N[C@H]1CCCCC/C=C\[C@@H]2C[C@@]2(C(=O)O)NC(=O)[C@@H]2C[C@@H](OC(=O)N3Cc4cc5c(cc4C3)OCO5)CN2C1=O` [Compound 11d], under setting [1], the half-maximal inhibitory concentration (IC50) is more than 200 nM.

For `CC(C)(C)OC(=O)N[C@H]1CCCCC/C=C\[C@@H]2C[C@@]2(C(=O)NS(=O)(=O)C2CC2)NC(=O)[C@@H]2C[C@@H](OC(=O)N3Cc4ccc5c(c4C3)OCCCO5)CN2C1=O` [Compound 12n], under setting [1], the half-inhibitory concentration (IC50) was less than 30 nM.

As for `CC[C@H]1C[C@@]1(NC(=O)C1C[C@@H](OC(=O)N2Cc3cc4c(cc3C2)OCO4)CN1C(=O)[C@@H](NC(=O)OC1CCCC1)C(C)(C)C)C(=O)NS(=O)(=O)C1CC1` (some centres unmarked) [Compound 30am], the IC50 under setting [1] was less than 30 nM.

Consider `CC(C)S(=O)(=O)NC(=O)[C@@]12C[C@H]1/C=C\CCCCC[C@H](NC(=O)OC(C)(C)C)C(=O)N1C[C@H](OC(=O)N3Cc4cc5c(cc4C3)OCCO5)C[C@H]1C(=O)N2` [Compound 12g], for which, under setting [1], the IC50 is less than 30 nM.

Regarding `O=C1N[C@]2(C(=O)NS(=O)(=O)C3CC3)C[C@H]2/C=C\CCCCCN(C2CC2)C(=O)C2C[C@H](OC(=O)N3Cc4cc5c(cc4C3)OCO5)C[C@@H]12` (some centres unmarked) [Compound 21b], under setting [1], the half-maximal inhibitory concentration (IC50) is 30 to 200 nM.

Regarding `CCC[C@H](NC(=O)C1C[C@@H](OC(=O)N2Cc3cc4c(cc3C2)OCCO4)CN1C(=O)[C@@H](NC(=O)[C@@H](NC(=O)c1cnccn1)C1CCCCC1)C(C)(C)C)C(=O)C(=O)NC1CC1` (some centres unmarked) [Compound 33b], the 50% inhibitory concentration (IC50) lay in the range of 30 to 200 nM.

Regarding `CC(C)S(=O)(=O)NC(=O)[C@@]12C[C@H]1/C=C\CCCCC[C@H](NC(=O)OC(C)(C)C)C(=O)N1C[C@H](OC(=O)N3Cc4cc5c(cc4C3)OCO5)C[C@H]1C(=O)N2` [Compound 12h], under setting [1], the 50% inhibitory concentration (IC50) was less than 30 nM.

Take `O=C1N[C@]2(C(=O)NS(=O)(=O)C3CC3)C[C@H]2/C=C\CCCCN(C2CC2)C(=O)C2C[C@H](OC(=O)N3Cc4ccc5c(c4C3)OCO5)C[C@@H]12` (some centres unmarked) [Compound 21f]: the 50% inhibitory concentration (IC50) under setting [1] lay in the range of 30 to 200 nM.

On to `CN1CCCCC/C=C\[C@@H]2C[C@@]2(C(=O)NS(=O)(=O)C2CC2)NC(=O)[C@@H]2C[C@@H](OC(=O)N3Cc4cc5c(cc4C3)OCO5)CC2C1=O` (some centres unmarked) [Compound 21e], for which, under setting [1], the IC50 was less than 30 nM.

As to `CC(C)(C)OC(=O)N[C@H]1CCCCC/C=C\[C@@H]2C[C@@]2(C(=O)O)NC(=O)[C@@H]2C[C@@H](OC(=O)N3Cc4cc5c(cc4C3)OCCO5)CN2C1=O` [Compound 11c], the half-inhibitory concentration (IC50) under setting [1] is more than 200 nM.

For the compound `O=C1N[C@]2(C(=O)NS(=O)(=O)C3CC3)C[C@H]2/C=C\CCCCC[C@H](N2CCCS2(=O)=O)C(=O)N2C[C@H](OC(=O)N3Cc4cc5c(cc4C3)OCO5)C[C@@H]12` [Compound 12k], the IC50 under setting [1] is less than 30 nM.

On to `CC[C@H]1C[C@@]1(NC(=O)C1C[C@@H](OC(=O)N2Cc3cc4c(cc3C2)OCCCO4)CN1C(=O)[C@@H](NC(=O)[C@@H](NC(=O)OC1CCCC1)C1CCCCC1)C(C)(C)C)C(=O)NS(=O)(=O)C1CC1` (some centres unmarked) [Compound 30ae], for which the IC50 lay in the range of 30 to 200 nM.

On to `CC(C)(C)OC(=O)N[C@H]1CCCCC/C=C\[C@@H]2C[C@@]2(C(=O)NS(=O)(=O)C2CC2)NC(=O)[C@@H]2C[C@@H](OC(=O)N3Cc4cc5c(cc4C3)OCCO5)CN2C1=O` [Compound 12c], for which, under setting [1], the IC50 was less than 30 nM.

For the compound `CC(C)(C)OC(=O)N[C@H]1CCCCC/C=C\[C@@H]2C[C@@]2(C(=O)NS(=O)(=O)C2CC2)NC(=O)[C@@H]2C[C@@H](OC(=O)N3Cc4cccc(F)c4C3)CN2C1=O` [Compound 12-Ref, reference compound], the IC50 under setting [1] was less than 30 nM.

`CCC[C@H](NC(=O)C1C[C@@H](OC(=O)N2Cc3ccc4c(c3C2)OCO4)CN1C(=O)[C@@H](NC(=O)[C@@H](NC(=O)c1cnccn1)C1CCCCC1)C(C)(C)C)C(=O)C(=O)NC1CC1` (some centres unmarked) [Compound 33c] showed a concentration for half-maximal inhibition (IC50) of 30 to 200 nM.

`CC[C@H]1C[C@@]1(NC(=O)C1C[C@@H](OC(=O)N(C)Cc2ccc3c(c2)OCO3)CN1C(=O)[C@@H](NC(=O)OC1CCCC1)C(C)(C)C)C(=O)NS(=O)(=O)C1CC1` (some centres unmarked) [Compound 30ap]: the half-inhibitory concentration (IC50) under setting [1] is less than 30 nM.

Compound `CC[C@H]1C[C@@]1(NC(=O)C1C[C@@H](OC(=O)N2Cc3cc4c(cc3C2)OCO4)CN1C(=O)[C@@H](NC(=O)[C@@H](NC(=O)OC(C)C)C1CCCCC1)C(C)(C)C)C(=O)NS(=O)(=O)C1CC1` (some centres unmarked) [Compound 30w] registered an IC50 of less than 30 nM.

Regarding `C=C[C@H]1C[C@@]1(NC(=O)C1C[C@@H](OC(=O)N2Cc3ccc4c(c3C2)OCCO4)CN1C(=O)[C@@H](NC(=O)[C@@H](NC(=O)c1cnccn1)C1CCCCC1)C(C)(C)C)C(=O)NS(=O)(=O)C1CC1` (some centres unmarked) [Compound 30d], the IC50 was less than 30 nM.

On to `CC(C)(C)OC(=O)N[C@H]1CCCCC/C=C\[C@@H]2C[C@@]2(C(=O)NS(=O)(=O)C2CC2)NC(=O)[C@@H]2C[C@@H](OC(=O)N3Cc4ccc5c(c4C3)OCO5)CN2C1=O` [Compound 12a], for which the half-maximal inhibitory concentration (IC50) under setting [1] is less than 30 nM.

As to `CC[C@H]1C[C@@]1(NC(=O)C1C[C@@H](OC(=O)N2Cc3ccc4c(c3C2)OCO4)CN1C(=O)[C@@H](NC(=O)[C@@H](NC(=O)c1cnccn1)C1CCCCC1)C(C)(C)C)C(=O)NS(=O)(=O)C1CC1` (some centres unmarked) [Compound 30f], the IC50 is less than 30 nM.

`CC[C@H]1C[C@@]1(NC(=O)C1C[C@@H](OC(=O)N2Cc3cc4c(cc3C2)OCO4)CN1C(=O)[C@@H](NC(=O)[C@@H](NC(=O)c1cnccn1)C1CCCCC1)C(C)(C)C)C(=O)NS(=O)(=O)C1CC1` (some centres unmarked) [Compound 30b] displayed a 50% inhibitory concentration (IC50) of less than 30 nM.

`CC[C@H]1C[C@@]1(NC(=O)C1C[C@@H](OC(=O)N2Cc3cc4c(cc3C2)OCCCO4)CN1C(=O)[C@@H](NC(=O)[C@@H](NC(=O)c1cnccn1)C1CCCCC1)C(C)(C)C)C(=O)NS(=O)(=O)C1CC1` (some centres unmarked) [Compound 30h] showed an IC50 of less than 30 nM.

Consider `CC(C)S(=O)(=O)NC(=O)[C@@]12C[C@H]1/C=C\CCCCC[C@H](NC(=O)OC(C)(C)C)C(=O)N1C[C@H](OC(=O)N3Cc4ccc5c(c4C3)OCCO5)C[C@H]1C(=O)N2` [Compound 12f], for which the 50% inhibitory concentration (IC50) under setting [1] was less than 30 nM.

With `CC(C)OC(=O)N[C@H]1CCCCC/C=C\[C@@H]2C[C@@]2(C(=O)NS(=O)(=O)C2CC2)NC(=O)[C@@H]2C[C@@H](OC(=O)N3Cc4cc5c(cc4C3)OCO5)CN2C1=O` [Compound 12q], the IC50 under setting [1] was less than 30 nM.

Compound `C=C[C@H]1C[C@@]1(NC(=O)C1C[C@@H](OC(=O)N2Cc3cc4c(cc3C2)OCO4)CN1C(=O)[C@@H](NC(=O)[C@@H](NC(=O)c1cnccn1)C1CCCCC1)C(C)(C)C)C(=O)NS(=O)(=O)C1CC1` (some centres unmarked) [Compound 30a] came in with an IC50 of less than 30 nM.

With `CN1CCCCC/C=C\[C@@H]2C[C@@]2(C(=O)NS(=O)(=O)C2CC2)NC(=O)[C@@H]2CC(OC(=O)N3Cc4cc5c(cc4C3)OCO5)CN2C1=O` (some centres unmarked) [Compound 27a], under setting [1], the IC50 was 30 to 200 nM.

For the compound `C=C[C@H]1C[C@@]1(NC(=O)C1C[C@@H](OC(=O)N2Cc3cc4c(cc3C2)OCO4)CN1C(=O)[C@@H](NC(=O)OC1CCCC1)C(C)(C)C)C(=O)NS(=O)(=O)C1CC1` (some centres unmarked) [Compound 30ak], the IC50 under setting [1] is less than 30 nM.

For `C=C[C@H]1C[C@@]1(NC(=O)C1C[C@@H](OC(=O)N2Cc3ccc4c(c3C2)OCO4)CN1C(=O)[C@@H](NC(=O)OC(C)(C)C)C(C)(C)C)C(=O)NS(=O)(=O)C1CC1` (some centres unmarked) [Compound 30ah], the half-inhibitory concentration (IC50) under setting [1] was less than 30 nM.

On to `C=C[C@H]1C[C@@]1(NC(=O)C1C[C@@H](OC(=O)N2Cc3cc4c(cc3C2)OCO4)CN1C(=O)[C@@H](NC(=O)[C@@H](NC(=O)NC(C)(C)C)C1CCCCC1)C(C)(C)C)C(=O)NS(=O)(=O)C1CC1` (some centres unmarked) [Compound 30ab], for which the IC50 was less than 30 nM.
